Experimental data published in ChEMBL document CHEMBL3882389, “Phosphatidylinositol 3-Kinase Inhibitors for the Treatment of Lymphoproliferative Malignancies” (2014).
The source made the active and inactive calls. No cut-off for these calls is given here.

Legend:
[1] = Toxicity in patient with chronic lymphocytic leukemia and lymphoma assessed as incidence of rash at 600 mg, po qd for 21 days during phase 1 open label non-randomized trial relative to control; format: organism-based; details: human, in vivo, 504 h
[2] = Toxicity in patient with chronic lymphocytic leukemia and lymphoma assessed as incidence of pruritus at 600 mg, po qd for 21 days during phase 1 open label non-randomized trial relative to control; format: organism-based; details: human, in vivo, 504 h
[3] = Toxicity in patient with chronic lymphocytic leukemia and lymphoma assessed as incidence of grade more than equal 3 pruritus at 600 mg, po qd for 21 days co-administered with paclitaxel and carboplatin during phase 1 open label non-randomized trial relative to control; format: organism-based; details: human, in vivo, 504 h
[4] = Toxicity in po dosed patient with chronic lymphocytic leukemia and lymphoma assessed as induction of grade 3 rash at 600 mg, po administered once daily for 21 days followed by 7 days rest; format: organism-based; details: human, in vivo
[5] = Toxicity in po dosed patient with chronic lymphocytic leukemia and lymphoma assessed as induction of grade 3 rash at 600 mg, po administered once daily for continuous 21 days; format: organism-based; details: human, in vivo, 504 h
[6] = Toxicity in patient with chronic lymphocytic leukemia and lymphoma assessed as incidence of grade more than equal 3 pyrexia at 600 mg, po qd for 21 days co-administered with paclitaxel and carboplatin during phase 1 open label non-randomized trial relative to control; format: organism-based; details: human, in vivo, 504 h
[7] = Toxicity in patient with chronic lymphocytic leukemia and lymphoma assessed as incidence of fatigue at 600 mg, po qd for 21 days co-administered with paclitaxel and carboplatin during phase 1 open label non-randomized trial relative to control; format: organism-based; details: human, in vivo, 504 h
[8] = Toxicity in patient with chronic lymphocytic leukemia and lymphoma assessed as incidence of cough at 600 mg, po qd for 21 days during phase 1 open label non-randomized trial relative to control; format: organism-based; details: human, in vivo, 504 h
[9] = Toxicity in patient with chronic lymphocytic leukemia and lymphoma assessed as incidence of abdominal pain at 600 mg, po qd for 21 days during phase 1 open label non-randomized trial relative to control; format: organism-based, Abdomen; details: human, in vivo, 504 h
[10] = Toxicity in patient with chronic lymphocytic leukemia and lymphoma assessed as incidence of hyperglycemia at 600 mg, po qd for 21 days during phase 1 open label non-randomized trial relative to control; format: organism-based; details: human, in vivo, 504 h
[11] = Toxicity in patient with chronic lymphocytic leukemia and lymphoma assessed as incidence of grade more than equal 3 anemia at 600 mg, po qd for 21 days co-administered with paclitaxel and carboplatin during phase 1 open label non-randomized trial relative to control; format: organism-based; details: human, in vivo, 504 h
[12] = Toxicity in patient with chronic lymphocytic leukemia and lymphoma assessed as incidence of grade more than equal 3 cough at 600 mg, po qd for 21 days co-administered with paclitaxel and carboplatin during phase 1 open label non-randomized trial relative to control; format: organism-based; details: human, in vivo, 504 h
[13] = Toxicity in patient with chronic lymphocytic leukemia and lymphoma assessed as incidence of grade more than equal 3 fatigue at 600 mg, po qd for 21 days during phase 1 open label non-randomized trial relative to control; format: organism-based; details: human, in vivo, 504 h
[14] = Toxicity in patient with chronic lymphocytic leukemia and lymphoma assessed as incidence of grade more than equal 3 dyspnea at 600 mg, po qd for 21 days co-administered with paclitaxel and carboplatin during phase 1 open label non-randomized trial relative to control; format: organism-based; details: human, in vivo, 504 h
[15] = tested on: Homo sapiens; assay: In vivo inhibition of PI3K in tumor tissue of po dosed solid tumor patient administered once daily; format: functional, organism-based
[16] = Toxicity in patient with chronic lymphocytic leukemia and lymphoma assessed as incidence of hyperglycemia at 600 mg, po qd for 21 days co-administered with paclitaxel and carboplatin during phase 1 open label non-randomized trial relative to control; format: organism-based; details: human, in vivo, 504 h
[17] = Toxicity in patient with chronic lymphocytic leukemia and lymphoma assessed as incidence of rash at 600 mg, po qd for 21 days co-administered with paclitaxel and carboplatin during phase 1 open label non-randomized trial relative to control; format: organism-based; details: human, in vivo, 504 h
[18] = Toxicity in po dosed patient with chronic lymphocytic leukemia and lymphoma assessed as induction of grade 3 hypersensitivity at 600 mg, po administered once daily for 21 days followed by 7 days rest; format: organism-based; details: human, in vivo
[19] = Toxicity in patient with chronic lymphocytic leukemia and lymphoma assessed as incidence of anemia at 600 mg, po qd for 21 days during phase 1 open label non-randomized trial relative to control; format: organism-based; details: human, in vivo, 504 h
[20] = Toxicity in patient with chronic lymphocytic leukemia and lymphoma assessed as incidence of dyspnea at 600 mg, po qd for 21 days during phase 1 open label non-randomized trial relative to control; format: organism-based; details: human, in vivo, 504 h
[21] = Toxicity in patient with chronic lymphocytic leukemia and lymphoma assessed as incidence of grade more than equal 3 anemia at 600 mg, po qd for 21 days during phase 1 open label non-randomized trial relative to control; format: organism-based; details: human, in vivo, 504 h
[22] = Toxicity in po dosed patient with chronic lymphocytic leukemia and lymphoma assessed as induction of grade 3 hypersensitivity at 600 mg, po once daily for continuous 21 daysrest; format: organism-based; details: human, in vivo
[23] = tested on: Homo sapiens; assay: In vivo inhibition of PI3K in PBMC of po dosed solid tumor patient administered once daily; format: functional, organism-based
[24] = Toxicity in patient with chronic lymphocytic leukemia and lymphoma assessed as incidence of dyspnea at 600 mg, po qd for 21 days co-administered with paclitaxel and carboplatin during phase 1 open label non-randomized trial relative to control; format: organism-based; details: human, in vivo, 504 h
[25] = tested on: Homo sapiens; assay: In vivo inhibition of PI3K in hair follicle of po dosed solid tumor patient administered once daily; format: functional, organism-based
[26] = Toxicity in patient with chronic lymphocytic leukemia and lymphoma assessed as incidence of diarrhea at 600 mg, po qd for 21 days co-administered with paclitaxel and carboplatin during phase 1 open label non-randomized trial relative to control; format: organism-based; details: human, in vivo, 504 h
[27] = Toxicity in patient with chronic lymphocytic leukemia and lymphoma assessed as incidence of grade more than equal 3 fatigue at 600 mg, po qd for 21 days co-administered with paclitaxel and carboplatin during phase 1 open label non-randomized trial relative to control; format: organism-based; details: human, in vivo, 504 h
[28] = Toxicity in patient with chronic lymphocytic leukemia and lymphoma assessed as incidence of neutrophenia at 600 mg, po qd for 21 days co-administered with paclitaxel and carboplatin during phase 1 open label non-randomized trial relative to control; format: organism-based; details: human, in vivo, 504 h
[29] = Toxicity in patient with chronic lymphocytic leukemia and lymphoma assessed as incidence of diarrhea at 600 mg, po qd for 21 days during phase 1 open label non-randomized trial relative to control; format: organism-based; details: human, in vivo, 504 h
[30] = Toxicity in patient with chronic lymphocytic leukemia and lymphoma assessed as incidence of grade more than equal 3 abdominal pain at 600 mg, po qd for 21 days co-administered with paclitaxel and carboplatin during phase 1 open label non-randomized trial relative to control; format: organism-based, Abdomen; details: human, in vivo, 504 h
[31] = Toxicity in patient with chronic lymphocytic leukemia and lymphoma assessed as incidence of cough at 600 mg, po qd for 21 days co-administered with paclitaxel and carboplatin during phase 1 open label non-randomized trial relative to control; format: organism-based; details: human, in vivo, 504 h
[32] = tested on: Homo sapiens; assay: In vivo inhibition of PI3K in skin of po dosed solid tumor patient administered once daily; format: functional, organism-based
[33] = Toxicity in patient with chronic lymphocytic leukemia and lymphoma assessed as incidence of grade more than equal 3 neutrophenia at 600 mg, po qd for 21 days co-administered with paclitaxel and carboplatin during phase 1 open label non-randomized trial relative to control; format: organism-based; details: human, in vivo, 504 h

Q: With `COc1ccc(Cl)c(Nc2nc3ccccc3nc2NS(=O)(=O)c2cccc(NC(=O)C(C)(C)N)c2)c1` [PILARALISIB] as the compound, how does the Activity [1] read?
A: 4%

Q: What about the Activity [2] of the same compound?
A: 4%

Q: What about the Activity [3] of the same compound?
A: 0%

Q: What about the Activity [4] of the same compound?
A: Toxic

Q: What about the Activity [5] of the same compound?
A: Toxic

Q: And the Activity [6]?
A: 0%

Q: And the Activity [7]?
A: 0%

Q: What about the Activity [8] of the same compound?
A: 6%

Q: And the Activity [9]?
A: 4%

Q: What about the Activity [10] of the same compound?
A: 4%

Q: And the Activity [11]?
A: 0%

Q: And the Activity [12]?
A: 0%

Q: What about the Activity [13] of the same compound?
A: 0%

Q: What about the Activity [14] of the same compound?
A: 0%

Q: What about the inhibition [15] of the same compound?
A: Active

Q: What about the Activity [16] of the same compound?
A: 4%

Q: What about the Activity [17] of the same compound?
A: 3%

Q: What about the Activity [18] of the same compound?
A: Toxic

Q: What about the Activity [19] of the same compound?
A: 4%

Q: And the Activity [20]?
A: 4%

Q: What about the Activity [21] of the same compound?
A: 3%

Q: What about the Activity [22] of the same compound?
A: Toxic

Q: What about the inhibition [23] of the same compound?
A: Active

Q: And the Activity [24]?
A: 0%

Q: And the inhibition [25]?
A: Active

Q: And the Activity [26]?
A: 7%

Q: What about the Activity [27] of the same compound?
A: 0%

Q: What about the Activity [28] of the same compound?
A: 4%

Q: What about the Activity [29] of the same compound?
A: 12%

Q: And the Activity [30]?
A: 0%

Q: What about the Activity [31] of the same compound?
A: 0%

Q: And the inhibition [32]?
A: Active

Q: What about the Activity [33] of the same compound?
A: 4%
